Results reported in ChEMBL document CHEMBL1127937, “Dual metalloprotease inhibitors. I. constrained peptidomimetics of mercaptoacyl dipeptides” (Bioorg Med Chem Lett, 1994).

What was measured:
[1] = molecular target: Angiotensin-converting enzyme (Homo sapiens, UniProt P12821); assay: Tested in vitro for inhibition of Angiotensin converting enzyme (ACE); details: read-out: I50
Rattus norvegicus = assay: Tested in vivo for inhibition of angiotensin I -induced pressor response in normotensive rats after iv administration; format: functional
Neprilysin = Neprilysin (Homo sapiens, UniProt P08473); assay: Tested in vitro for inhibition of neutral endopeptidase (NEP); details: read-out: I50
Neprilysin, sequence (P08473 whole entry): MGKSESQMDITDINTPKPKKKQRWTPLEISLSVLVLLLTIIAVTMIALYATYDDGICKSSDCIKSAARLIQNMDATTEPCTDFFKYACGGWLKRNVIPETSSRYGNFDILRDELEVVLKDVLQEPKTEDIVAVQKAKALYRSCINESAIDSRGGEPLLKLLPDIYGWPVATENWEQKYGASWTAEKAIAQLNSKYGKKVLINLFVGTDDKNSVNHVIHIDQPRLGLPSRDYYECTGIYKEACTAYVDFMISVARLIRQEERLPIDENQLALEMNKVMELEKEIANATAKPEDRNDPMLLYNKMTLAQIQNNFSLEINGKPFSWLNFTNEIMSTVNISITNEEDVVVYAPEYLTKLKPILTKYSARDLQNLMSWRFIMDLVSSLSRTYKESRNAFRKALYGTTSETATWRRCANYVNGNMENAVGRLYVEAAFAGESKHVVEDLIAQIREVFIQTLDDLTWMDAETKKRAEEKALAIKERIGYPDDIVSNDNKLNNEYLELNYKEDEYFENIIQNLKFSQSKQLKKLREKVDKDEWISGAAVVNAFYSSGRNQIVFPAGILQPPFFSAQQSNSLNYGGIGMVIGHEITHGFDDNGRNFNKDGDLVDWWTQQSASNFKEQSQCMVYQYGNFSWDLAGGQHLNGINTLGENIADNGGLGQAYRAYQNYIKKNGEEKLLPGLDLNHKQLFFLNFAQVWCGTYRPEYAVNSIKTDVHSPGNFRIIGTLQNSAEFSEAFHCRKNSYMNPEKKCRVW

Angiotensin-converting enzyme, sequence (P12821 whole entry): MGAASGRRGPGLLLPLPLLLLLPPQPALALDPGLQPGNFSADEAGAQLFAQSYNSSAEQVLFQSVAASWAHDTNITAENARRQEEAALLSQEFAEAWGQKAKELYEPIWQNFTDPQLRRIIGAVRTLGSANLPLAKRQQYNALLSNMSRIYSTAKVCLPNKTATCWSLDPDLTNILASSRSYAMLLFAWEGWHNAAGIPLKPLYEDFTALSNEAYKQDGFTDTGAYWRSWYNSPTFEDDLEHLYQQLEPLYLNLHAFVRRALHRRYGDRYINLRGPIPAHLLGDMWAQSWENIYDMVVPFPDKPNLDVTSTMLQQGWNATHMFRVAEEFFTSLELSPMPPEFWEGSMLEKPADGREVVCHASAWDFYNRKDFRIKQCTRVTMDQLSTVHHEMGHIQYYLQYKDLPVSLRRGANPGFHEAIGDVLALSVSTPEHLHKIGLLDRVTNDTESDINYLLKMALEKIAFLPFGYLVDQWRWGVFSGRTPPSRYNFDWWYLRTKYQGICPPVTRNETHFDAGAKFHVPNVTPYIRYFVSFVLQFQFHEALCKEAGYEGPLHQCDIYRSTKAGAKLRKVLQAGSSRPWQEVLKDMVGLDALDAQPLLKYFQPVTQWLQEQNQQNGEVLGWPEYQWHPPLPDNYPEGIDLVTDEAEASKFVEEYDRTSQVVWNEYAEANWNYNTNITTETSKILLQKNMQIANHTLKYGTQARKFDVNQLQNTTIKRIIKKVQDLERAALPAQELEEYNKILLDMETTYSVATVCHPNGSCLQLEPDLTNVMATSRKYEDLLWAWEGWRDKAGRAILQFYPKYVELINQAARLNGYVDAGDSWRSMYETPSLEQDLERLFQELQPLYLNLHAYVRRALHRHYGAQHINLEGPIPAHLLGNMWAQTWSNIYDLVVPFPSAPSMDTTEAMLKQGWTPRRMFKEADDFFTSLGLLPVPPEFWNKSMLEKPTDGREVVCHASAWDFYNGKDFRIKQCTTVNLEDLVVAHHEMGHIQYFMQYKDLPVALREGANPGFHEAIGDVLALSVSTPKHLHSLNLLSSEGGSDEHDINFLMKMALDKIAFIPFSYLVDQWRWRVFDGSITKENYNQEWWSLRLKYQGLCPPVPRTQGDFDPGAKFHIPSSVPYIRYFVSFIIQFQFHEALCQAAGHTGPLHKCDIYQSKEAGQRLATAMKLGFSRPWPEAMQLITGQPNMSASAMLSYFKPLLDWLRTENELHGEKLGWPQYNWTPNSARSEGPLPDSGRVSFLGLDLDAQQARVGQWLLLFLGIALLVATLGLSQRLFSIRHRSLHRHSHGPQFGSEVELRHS

Row | Compound | IC50 [1] [nM] | IC50 (Neprilysin) [nM] | ED50 (Rattus norvegicus) [µmol/kg]
1 | C[C@H]1Oc2ccccc2N(CC(=O)O)C(=O)[C@H]1NC(=O)[C@@H](S)Cc1ccccc1 | 13 | 118 | 0.015
2 | C[C@H](NC(=O)[C@@H](S)Cc1ccccc1)C(=O)N1CCC[C@H]1C(=O)O | 30 | 400 | 0.06
3 | O=C(O)CCN1C(=O)[C@@H](NC(=O)[C@@H](S)Cc2ccccc2)CSc2ccccc21 | 14 | 2.2 | 0.33
4 | O=C(O)CCN1C(=O)[C@@H](NC(=O)[C@@H](S)Cc2ccccc2)CCc2ccccc21 | 36 | 2.4 | 1.34
5 | O=C(O)CN1C(=O)[C@@H](NC(=O)[C@@H](S)Cc2ccccc2)CCc2ccccc21 |  | 6.1 | 0.02
6 | C[C@H](NC(=O)[C@@H](CS)Cc1ccccc1)C(=O)N1CCC[C@H]1C(=O)O | 4 | 6.6 | 0.5
7 | O=C(O)CCN1C(=O)[C@@H](NC(=O)[C@@H](S)Cc2ccccc2)COc2ccccc21 | 31 | 1.2 | 1.2

Continued by falling IC50 (Neprilysin), values first:

Row | IC50 [1] [nM] | IC50 (Neprilysin) [nM] | Compound | ED50 (Rattus norvegicus) [µmol/kg]
8 | 18 | 83 | C[C@H]1Oc2ccccc2N(CCC(=O)O)C(=O)[C@H]1NC(=O)[C@@H](S)Cc1ccccc1 | 
9 | 13 | 64 | O=C(O)CN1C(=O)[C@@H](NC(=O)[C@@H](S)Cc2ccccc2)CSc2ccccc21 | 0.14
10 | 36 | 5.2 | C[C@@H]1Oc2ccccc2N(CC(=O)O)C(=O)[C@H]1NC(=O)[C@@H](S)Cc1ccccc1 | 2.1
11 | 28 | 3.1 | O=C(O)CN1C(=O)[C@@H](NC(=O)[C@@H](S)Cc2ccccc2)COc2ccccc21 | 0.26
12 | 4.8 | 2.1 | O=C(O)CN1C(=O)[C@@H](NC(=O)[C@@H](CS)Cc2ccccc2)CCc2ccccc21 | 0.52
13 | 36 | 1.7 | O=C(O)CCN1C(=O)[C@@H](NC(=O)[C@@H](CS)Cc2ccccc2)CCc2ccccc21 | 13.3
14 | 17 | 1 | O=C(O)CN1C(=O)[C@@H](NC(=O)[C@@H](CS)Cc2ccccc2)CSc2ccccc21 | 4
15 | 4.4 | 0.6 | O=C(O)CN1C(=O)[C@@H](NC(=O)[C@@H](CS)Cc2ccccc2)COc2ccccc21 | 5.8
